Measurements as given in PMC6988309, “Preclinical efficacy for a novel tyrosine kinase inhibitor, ArQule 531 against acute myeloid leukemia” (Journal of Hematology & Oncology, 2020).
Where two headings read alike, the source gives them in different places.

Tests used:
MOLM13 = experiment: MTT proliferation assay 72 h, parental MOLM13; format: cell-based, human
Protocol: (§1) A total of 5000–30,000 cells from the lines above were treated in a 96-well plate for 72 h. CellTiter 96 Aqueous MTS reagent (Promega, Madison, WI) was added to cells followed by a 3-h incubation at 37 °C, 5% CO2. The absorbance was measured at 490 nm using DTX 880 plate reader and the half maximal inhibitory concentration (IC50) was calculated using GraphPad Prism 7 (GraphPad Software, La Jolla, CA) and SAS/STAT software (SAS v9.4 for Windows, SAS Institute, Inc., Cary, NC). For the MOLM-13 resistant and the Ba/F3-FLT3-ITD/TKD cell lines, cells were treated for 72 h and cell viability was evaluated using MTT assay (Roche Diagnostics. Mannheim. Germany) according to the manufacturer’s instructions.

OCI-AML3 = experiment: MTS proliferation assay 72 h, OCI-AML3; format: cell-based; conditions: Homo sapiens, OCI-AML-3, read-out: Estimated absolute µM IC50 (95% CI), 4-parameter logistic model
Protocol: A total of 5000–30,000 cells from the lines above were treated in a 96-well plate for 72 h. CellTiter 96 Aqueous MTS reagent (Promega, Madison, WI) was added to cells followed by a 3-h incubation at 37 °C, 5% CO2. The absorbance was measured at 490 nm using DTX 880 plate reader and the half maximal inhibitory concentration (IC50) was calculated using GraphPad Prism 7 (GraphPad Software, La Jolla, CA) and SAS/STAT software (SAS v9.4 for Windows, SAS Institute, Inc., Cary, NC).

[1] = tested on: primary AML patient blasts; experiment: MTS proliferation assay, primary AML blasts co-cultured with HS5-GFP stroma cells, 96 h; format: cell-based, human; conditions: HS5-GFP co-culture
Excerpt: For in vitro cytotoxicity experiments (Fig. 1b–d), repeated measures models were used to account for correlations among observations from the same experiment. The percentage of live cells was compared at each concentration with DMSO. […] Mixed effects models were used in experiments described in Additional file 1: Table S4 and Fig. 2c to account for correlations within a single patient. Outcome data were first log-transformed to stabilize variances and reduce skewness. For survival experiments (Figs. 5 and 6a), Kaplan-Meier curves were produced and group differences for Fig. 5 and assessed by the log-rank test and for Fig. 6a, p values have been adjusted for multiple comparisons using Holm’s procedure. p values from experiments with multiple endpoints were adjusted for multiple comparisons using either Holm’s procedure or Dunnett’s test (all comparisons against vehicle/DMSO).
MTS proliferation assay using a human stroma co-culture assay. […] FLT3 wild-type (WT) samples (red) and FLT3-ITD (black). Colony-Forming Unit-Granulocyte and Macrophage (CFU-GM) assay. […] Number of colonies were counted after 14 days (c)

[2] = set-up: method as in doi:10.1182/blood-2018-99-116338; conditions: dose escalation study; cited from earlier work
MOLM-13 = experiment: MTS proliferation assay 72 h, MOLM-13
Protocol: as §1

Ba/F3 FLT3-ITD/D835H = experiment: MTT proliferation assay 72 h, Ba/F3 FLT3-ITD/D835H; format: cell-based, murine; conditions: Mus musculus, BaF3, read-out: Estimated absolute µM IC50 and 95% CI
Protocol: (§2) For the MOLM-13 resistant and the Ba/F3-FLT3-ITD/TKD cell lines, cells were treated for 72 h and cell viability was evaluated using MTT assay (Roche Diagnostics. Mannheim. Germany) according to the manufacturer’s instructions.

[3] = cited from earlier work
Ba/F3 FLT3-D835Y = experiment: MTT proliferation assay 72 h, Ba/F3 FLT3-D835Y; format: cell-based, murine; conditions: Mus musculus, BaF3, read-out: Estimated absolute µM IC50 and 95% CI
Protocol: as §2

THP-1 = experiment: MTS proliferation assay 72 h, THP-1; format: cell-based, human
Protocol: as §1

FLT3-WT = biological target: T1, FLT3-WT (Homo sapiens, UniProt P36888); experiment: Biochemical assay of recombinant kinases, FLT3-WT; conditions: recombinant kinase domain, 10 μmol/L ATP
T1 construct: measured using recombinant protein constructs of kinase domains (Reaction Biology); purchased Reaction Biology
Protocol: Biochemical inhibition of FLT3-WT and FLT3-ITD fusion was measured using recombinant protein constructs of kinase domains (Reaction Biology).

[4] = tested on: phosphorylation of Tyrosine 416 of the SFK; experiment: Immunoblot of phospho-SFK Tyr416; format: cell-based, human; conditions: MOLM-13, MV4-11, and OCI-AML3, 10-min treatment
Protocol: Cell lines were serum starved overnight followed by a 10-min treatment. Cells were washed in ice-cold PBS then lysed in 1X Cell Lysis Buffer (CST) supplemented with proteinase and phosphatase inhibitors cocktail (Roche). Pierce BCA Protein Assay was used to quantify the protein lysates (Thermo Fisher Scientific, Waltham, MA). For Immunoblotting, 15–25 μg of protein lysate was prepared in 2X or 4X Laemmeli’s sample buffer (Bio-Rad Laboratories, Hercules, CA) and heated for 5 min at 100 °C. Samples were separated on 8% sodium dodecyl sulfate polyacrylamide gel and transferred onto nitrocellulose membrane (Bio-Rad Laboratories, Hercules, CA). The membranes were blocked for 1 h in Blocker BLOTTO Blocking Buffer (Thermo Fisher Scientific, Waltham, MA) or 5% non-fat milk followed by overnight incubation at 4 °C with primary antibody followed by HRP-conjugated secondary antibodies and visualized with chemiluminescent Pierce ECL Substrate (Thermo Fisher Scientific, Waltham, MA) on X-ray films.
Immunoblot analysis for MOLM-13, MV4-11, and OCI-AML3 AML cell lines (representative of 2-3 independent blots). […] Twenty to 25 μg of total protein lysate was loaded per lane.

[5] = tested on: MOLM-13, MV4-11, and OCI-AML3 cell lines; experiment: Annexin/PI apoptosis assay 72 h; format: cell-based, human; conditions: increasing concentrations of ARQ 531 or 50 nM gilteritinib
Protocol: Cells were treated for 72 h then stained for 20 min in 1X Annexin Binding buffer (BD Biosciences, Franklin Lakes, NJ) containing Annexin V-FITC and Propidium Iodine (Leinco Technologies, Fenton, MO). Live and apoptotic cells were measured using FC 500 flow cytometer and analyzed on Kaluza software (Beckman Coulter, Pasadena, CA).

Ba/F3 GFP+IL3 = experiment: MTT proliferation assay 72 h, Ba/F3 GFP+IL3; format: cell-based, murine
Protocol: as §1

U937 = experiment: MTS proliferation assay 72 h, U937; format: cell-based, human
Protocol: as §1

Ba/F3 FLT3-ITD = experiment: MTT proliferation assay 72 h, Ba/F3 FLT3-ITD; format: cell-based, murine; conditions: Mus musculus, read-out: Estimated absolute µM IC50 and 95% CI
Protocol: as §1

[6] = Toxicity in xenograft mouse studies; format: in vivo; conditions: xenograft mice, 50 mg/kg daily oral
Protocol: All experiments were conducted after approval of The Ohio State University Institutional Animal Care and Use Committee. Mice were randomized and enrolled for daily oral gavage (Q.D.P.O) treatment of vehicle or 50 mg/kg ARQ 531. Mice were treated until reaching early removal criteria (ERC) defined as 20% weight loss, lethargy, hind limb paralysis, moribund, anorexia, dehydration, hunched posture, severe diarrhea, breathing difficulties, or any abnormal neurological symptoms.

Ba/F3 FLT3-ITD/F691L = experiment: MTT proliferation assay 72 h, Ba/F3 FLT3-ITD/F691L; format: cell-based, murine; conditions: Mus musculus, BaF3, read-out: Estimated absolute µM IC50 and 95% CI
Protocol: as §2

T1 sequence (P36888 610-943 limits assumed): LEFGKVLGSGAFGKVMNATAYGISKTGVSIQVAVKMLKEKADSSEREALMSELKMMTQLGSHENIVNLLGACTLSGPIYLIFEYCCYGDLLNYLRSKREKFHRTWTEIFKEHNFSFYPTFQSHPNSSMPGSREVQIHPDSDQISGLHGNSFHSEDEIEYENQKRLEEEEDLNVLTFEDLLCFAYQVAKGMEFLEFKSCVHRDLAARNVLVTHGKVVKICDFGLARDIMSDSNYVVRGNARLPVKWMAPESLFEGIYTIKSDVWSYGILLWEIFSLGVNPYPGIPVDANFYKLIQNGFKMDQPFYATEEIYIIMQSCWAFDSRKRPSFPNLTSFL

Structure (SMILES): O=C(c1ccc(Oc2ccccc2)cc1Cl)c1c[nH]c2ncnc(N[C@@H]3CC[C@@H](CO)OC3)c12 [ARQ 531]
- IC50 (MOLM13; Homo sapiens, MOLM-13, 72 h, read-out: Estimated absolute µM IC50 and 95% CI, MTT, 72 h): 1.33 µM
- IC50 (MOLM13; read-out: Estimated absolute µM IC50 and 95% CI, MTT, 72 h): 1.3 µM
- IC50 (OCI-AML3): 1.51 µM
- Estimated Ratio of proliferation versus vehicle (DMSO) ([1]; 0.005 µM): 0.91
- Estimated Ratio of proliferation versus vehicle (DMSO) ([1]; 0.01 µM): 0.95
- Estimated Ratio of proliferation versus vehicle (DMSO) ([1]; 0.05 µM): 0.92
- Estimated Ratio of proliferation versus vehicle (DMSO) ([1]; 0.1 µM): 0.9
- Estimated Ratio of proliferation versus vehicle (DMSO) ([1]; 0.5 µM): 0.69
- Estimated Ratio of proliferation versus vehicle (DMSO) ([1]; 1 µM): 0.58
- Estimated Ratio of proliferation versus vehicle (DMSO) ([1]; 5 µM): 0.34
- Estimated Ratio of proliferation versus vehicle (DMSO) ([1]; 10 µM): 0.28
- Estimated Ratio of proliferation versus vehicle (DMSO) ([1]; 50 µM): 0.09
- treatment emergent adverse events [2]: no reported treatment emergent adverse events
- IC50 (MOLM-13; Homo sapiens, MOLM-13, 72 h, read-out: Estimated absolute µM IC50 (95% CI)): 0.69 µM
- in vitro anti-proliferative activity (MOLM-13; MOLM-13, 1 µM, 72 hours MTS (ibrutinib 1 hour washout)): demonstrated in vitro anti-proliferative activity
- IC50 (Ba/F3 FLT3-ITD/D835H): 3.76 µM
- Cmax ([3]; 65 mg daily dose): ~3000 nM
- concentration steady-state levels ([3]; ongoing phase 1 dose escalation trial in relapsed or refractory CLL): exceeding 1 μM
- IC50 (Ba/F3 FLT3-D835Y): 6.11 µM
- resistant to concentrations up to (THP-1): > 10 µM
- Estimated absolute µM IC50 (95% CI) (THP-1; 4-parameter logistic model): Unable to calculate IC50
- IC50 (FLT3-WT): 82 nM
- inhibition of phosphorylation of Tyrosine 416 of the SFK [4]: potently inhibited
- apoptosis / cytotoxicity (Annexin/PI) [5]: induced cell apoptosis
- Estimated absolute µM IC50 and 95% CI (Ba/F3 GFP+IL3): Unable to calculate IC50
- resistant to concentrations up to (U937): > 10 µM
- Estimated absolute µM IC50 (95% CI) (U937; 4-parameter logistic model): Unable to calculate IC50
- IC50 (Ba/F3 FLT3-ITD): 1.21 µM
- toxicity [6]: lack of toxicity
- IC50 (Ba/F3 FLT3-ITD/F691L): 7.12 µM
